The values below come from patent US20080153792A1, “Drug Identification and Treatment Method” (priority 2006, published 2008).

Experiment [1] deals with CD1 male mice, carrageenan-λ induced pleurisy. Kind of experiment: carrageenan-λ induced lung (pleural cavity) inflammation in mice. Type of experiment: in vivo, mouse. The note with it: 1 mg and 0.1 mg by oral gavage.
The target in experiment [2] is androgen receptor (Homo sapiens, UniProt P10275). Kind of experiment: interaction with androgen receptor.
Experiment [3] deals with estrogen receptor-s or estrogen receptor-s. Kind of experiment: interaction with estrogen receptors.
In experiment [4] the test system is mice treated daily with dexamethasone. Kind of experiment: osteoprotegerin levels in dexamethasone treated mice. The following applies: vehicle, dexamethasone 10 μg/day and compound at 4 mg/kg/day; p<0.05. In kind it is in vivo, mouse. As to the method:
Osteoprotegerin levels in mice that were treated with vehicle and dexamethasone at 10 μg/day (positive control group) had 3.3 pMol/L osteoprotegerin, while animals treated with vehicle, dexamethasone and 17α-ethynyl-5-androstene-3β,7β,17β-triol at 4 mg/kg/day had 6.4 pMol/L osteoprotegerin (p<0.05).

Experiment [5] relates to MG-63 cells. Kind of experiment: reversal of glucocorticoid effects in MG-63 osteosarcoma cells. The note with it: 1 nM compound; 7 hours; 30 nM dexamethasone. In kind it is cell-based, human.
The subject of experiment [6] is DBA/1 mice, passive collagen-induced arthritis. Kind of experiment: passive collagen-induced arthritis (anti-type II collagen antibodies). In kind it is in vivo, mouse. The note with it: 40 mg/kg/day oral gavage for 14 days. The source says: The capacity of formula 1 compounds to affect the course of arthritis in a passive collagen induced arthritis model of arthritis was examined essentially as previously described (E. Simelyte et al., Arthritis & Rheumatism, 52(6):1876-1884, 2005; Z. Han et al. Arthritis & Rheumatism 46(3):818-823 2002; H. Miyahara et. Clin. Immunol. Immunopathol., 69(1):69-76 1993). In this protocol, passive collagen-induced arthritis was induced in DBA/1 mice by administering anti-type II collagen antibodies, which induced an immune response against joint tissue in the animals. […] The severity of arthritis was assessed using a semiquantitative clinical scoring system. Groups of 8 animals per group were treated with 17α-ethynylandrost-5-ene-3β,7β,17β-triol at 40 mg/kg/day for 14 days or vehicle for 14 days by oral gavage. The vehicle was 30% cyclodextrin-sulfobutylether in water and the drug solution was vehicle with drug at 20 mg/mL.
The animals were examined by measuring ankle thickness and arthritis score (4-point/paw) with a higher score indicating a more severe arthritis. The experiment was terminated after about 14 days, and histology and gene expression measurements were performed. […] A semi-quantitative scoring system was used to access synovial inflammation, extraarticular inflammation, erosion and proteogylcan loss. […]

Experiment [7] concerns NF-κB in nuclei from spleen cells. Kind of experiment: kinetic analysis of NF-kB inhibition in vivo after LPS, Example 9. On the set-up: species or system mouse. The note with it: about 40 mg/kg i.p. 24 h before LPS. As to the method:
Kinetic analysis of NF-kB inhibition in vivo. […] The drug was injected 24 hours before intraperitoneal injection of bacterial LPS (about an LD50/24). The study used two groups of 12 animals, vehicle control or drug administered 24 hours before LPS challenge. Spleens were harvested from 3 animals from both groups just before LPS challenge and at 1.5, 2.0 and 2.5 hours after administration of LPS.
Maximum NF-κB activation after LPS administration occurred at 1.5 hours in the vehicle controls, which was 4-fold increased over the pre-LPS level of activated NF-κB. The values for the vehicle control and drug treated animals are relative optical density units from ELISA measurement of NF-κB in nuclei from spleen cells.

The test system of experiment [8] is BALB/C mice, TNP-OVA sensitized. Kind of experiment: reporter antigen popliteal lymph node (PLN) assay. In kind it is in vivo, mouse. The note with it: for average number of lymphocytes in PLNs: day 5. The source says:
Analysis of immune suppression. Glucocorticoid steroids such as dexamethasone or hydrocortisone are typically immune suppressive and have significant toxicities associated with their use. Immune suppression was examined in a reporter antigen popliteal lymph node assay in mice essentially as previously described (C. Goebel et al., Inflamm. Res., 45(Suppl. 2):S85-S90, 1996; R. Pieters et al., Environmental Health Perspectives 107(Suppl. 5):673-677,1999). […] In this protocol, the vehicle was 0.1% carboxymethylcellulose, 0.9% saline, 2% tween 80 and 0.05% phenol, which contained 17α-ethynylandrost-5-ene-3β,7β,17β-triol in suspension in drug treated animals. Assessment of activity included (1) measuring suppression of numbers of total lymphocytes, antigen specific IgM, IgG1 and IgG2a antibody secreting cells (ASC) (ELISPOT assay) in popliteal lymph node cells; (2) analysis of cell surface marker (CD4, CD8, CD19, F480, CD80, CD86) expression by flow cytometry of living cells in suspension; and (3) IL-4, TNFα and IFNγ production by lymphocytes in vitro (ELISA).
Groups (n=5 per group) of specific pathogen free BALB/C mice were used. The Positive control group was treated with vehicle (oral gavage) and 5 μg/day dexamethasone by subcutaneous injection to induce immune suppression. Vehicle control animals (negative control) were treated with vehicle alone (oral gavage). One group of animals was treated with 17α-ethynylandrost-5-ene-3β,7β,17β-triol at 0.1 mg/day by oral gavage. Another group was treated with 1 mg/day of 17α-ethynylandrost-5-ene-3β,7β,17β-triol was administered to the animals oral gavage. The results were analyzed by two-tailed Student's t-test with equal variance. The animals were injected in the right hind footpad with 50 μL of freshly prepared sensitizing dose of TNP-OVA. Dexamethasone (decadron phosphate injection; dexamethasone sodium phosphate) was administered by subcutaneous injection into the nape of the neck daily, immediately following sensitization with TNP-OVA. 17α-Ethynylandrost-5-ene-3β,7β,17β-triol was given immediately afterwards by gavage. Five days after injection of TNP-OVA, blood was drawn by orbital puncture, and the mice were euthanized by cervical dislocation and popliteal lymph nodes were removed and separated from adherent fatty tissue. Single cell suspensions were prepared, resuspended in 1 mL PBS-BSA (1%) and counted. Cell numbers, IL-4, IL-5 and IFNγ were measured.

Sequence of androgen receptor (P10275 whole entry, species assumed): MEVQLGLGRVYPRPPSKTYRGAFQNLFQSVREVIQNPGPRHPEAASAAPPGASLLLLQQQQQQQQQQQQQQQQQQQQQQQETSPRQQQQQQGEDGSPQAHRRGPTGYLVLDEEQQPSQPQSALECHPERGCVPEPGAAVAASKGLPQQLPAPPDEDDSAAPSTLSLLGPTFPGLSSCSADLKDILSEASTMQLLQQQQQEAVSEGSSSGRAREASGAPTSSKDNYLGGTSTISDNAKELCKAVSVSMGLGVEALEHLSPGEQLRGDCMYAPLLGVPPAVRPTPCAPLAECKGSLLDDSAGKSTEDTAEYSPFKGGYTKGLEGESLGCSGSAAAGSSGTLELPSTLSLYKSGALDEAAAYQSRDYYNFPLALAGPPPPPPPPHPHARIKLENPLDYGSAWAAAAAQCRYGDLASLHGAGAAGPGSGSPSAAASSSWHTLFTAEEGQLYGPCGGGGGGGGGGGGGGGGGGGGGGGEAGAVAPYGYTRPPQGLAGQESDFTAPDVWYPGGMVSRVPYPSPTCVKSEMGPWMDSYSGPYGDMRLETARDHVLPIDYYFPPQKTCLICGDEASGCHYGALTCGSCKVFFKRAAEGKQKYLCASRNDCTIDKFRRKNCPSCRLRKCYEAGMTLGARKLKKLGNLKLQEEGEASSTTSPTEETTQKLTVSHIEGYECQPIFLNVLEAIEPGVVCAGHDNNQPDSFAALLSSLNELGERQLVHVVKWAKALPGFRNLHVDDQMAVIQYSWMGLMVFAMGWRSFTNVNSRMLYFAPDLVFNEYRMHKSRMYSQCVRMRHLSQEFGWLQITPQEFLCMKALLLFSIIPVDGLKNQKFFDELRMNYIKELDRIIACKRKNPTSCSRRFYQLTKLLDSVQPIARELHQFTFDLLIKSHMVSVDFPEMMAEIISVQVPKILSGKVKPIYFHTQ

With `C#C[C@]1(O)CC[C@H]2[C@@H]3[C@@H](O)C=C4C[C@@H](O)CC[C@]4(C)[C@H]3CC[C@@]21C` [17α-ethynylandrost-5-ene-3β,7β,17β-triol], in experiment [1], the “anti-inflammation activity versus vehicle controls” value is “statistically significant anti-inflammation activity”. Further, the “interaction with androgen receptor” value in experiment [2] is recorded as “do not interact”. In addition, the “interaction with estrogen receptor-s or estrogen receptor-s” value in experiment [3] is reported as “do not interact”. In experiment [4], this compound returned an osteoprotegerin of 6.4 pmol/L. The “reversal of the decrease in osteoprotegerin synthesis” value in experiment [5] is listed as “completely reversed”. The compound also registered a maximum clinical score in experiment [6] (at day 7) of 5.1. Moreover, the “clinical score at day 14” value in experiment [6] (end of the protocol) is reported as 4.1. For the same compound, the “activated NF-κB in spleen cell nuclei (ELISA)” value in experiment [7] (0 hours (just before LPS)) is listed as 22 relative optical density units; in experiment [7] (1.5 hours after LPS), 2 relative optical density units; in experiment [7] (2.0 hours after LPS) it was 7 relative optical density units; in experiment [7] (2.5 hours after LPS), 9 relative optical density units. Also, the “average number of lymphocytes in PLNs” value in experiment [8] (0.1 mg/day by oral gavage) was 11.1×10^6 lymphocytes per lymph node; in experiment [8] (1 mg/day by oral gavage), 8.2×10^6 lymphocytes per lymph node. Also, the “IFNγ, IL-4 and IL-5 levels compared to the vehicle control group” value in experiment [8] (compound 1.0 mg/day and 0.1 mg/day oral, dexamethasone 5 μg/day s.c.) is recorded as “increased”.
